Test results: patent US20170306409A1, “CANCER PATIENT SELECTION FOR ADMINISTRATION OF WNT SIGNALING INHIBITORS USING RNF43 MUTATION STATUS” (NOVARTIS AG, priority 2012, published 2017)
Read-outs that look alike come from different tables or passages of the source.

Assays:
Assay in all cases: cell line proliferation assay (Cell Titer Glo)
Assay type in all cases: cell-based, human
BXPC3 = system: BXPC3
Method: (§1) The sensitivity of pancreatic cells to LGK974 treatment were tested in a cellular proliferation assay in vitro. Twenty four human pancreatic cancer cell lines were treated with or without LGK974. Cellular proliferation data was generated in 384 well format. Cells were harvested and resuspended in their appropriate growth medium at a density of 1.5×10^4 cells per mL. […] Plates were then transferred to incubators on the ACP-1 system (37° C., 5% CO2) and cells were allowed to attach overnight. […] Following compound addition, plates were returned to the incubator for 120 hours. The assay plates were read with the addition of 10 μL of 1× Cell Titer Glo (Promega G7573) according to the manufacturer's instructions. Plates were then incubated at room temperature for ten minutes and read on the integrated Perkin Elmer Viewlux (2 second exposure, 2× bin, high sensitivity). The raw data was normalized using the DMSO control wells within each plate and the curve fitting for IC50 determination was performed. Cell growth was measured five days later with Cell Titer Glo (Promega). […] As shown in TABLE 4 and Example 4, all four cell lines harbor RNF43 loss-of-function (LOF) mutations

Capan-2 = system: Capan-2
Method: as §1

HPAFII = system: HPAFII
Method: as §1

HUP-T3 = system: HUP-T3
Method: as §1

KP-1NL = system: KP-1NL
Method: as §1

KP-1N = system: KP-1N
Method: as §1

KP-2 = system: KP-2
Method: as §1

KP-3 = system: KP-3
Method: as §1

PA-TU-8902 = system: PA-TU-8902
Method: as §1

PA-TU-8988S = system: PA-TU-8988S
Method: as §1

PA-TU-8988T = system: PA-TU-8988T
Method: as §1

PK-1 = system: PK-1
Method: as §1

PK-59 = system: PK-59
Method: as §1

Panc 03.27 = system: Panc 03.27
Method: as §1

Panc 05.04 = system: Panc 05.04
Method: as §1

Panc 10.05 = system: Panc 10.05
Method: as §1

Panc1 = system: Panc1
Method: as §1

SUIT-2 = system: SUIT-2
Method: as §1

SW1990 = system: SW1990
Method: as §1

TCC-PAN2 = details: for IC50: Cell Titer Glo, read-out: LGK974 IC50s in cell line proliferation assay
Method: as §1

YAPC = system: YAPC
Method: as §1

[1] = Homo sapiens, 120 hours, Cell Titer Glo, read-out: LGK974 IC50s in cell line proliferation assay

Cc1cc(-c2ncc(CC(=O)Nc3ccc(-c4cnccn4)cn3)cc2C)ccn1 [LGK974, 2-[5-methyl-6-(2-methylpyridin-4-yl)pyridin-3-yl]-N-[5-(pyrazin-2-yl)pyridin-2-yl]acetamide]
Inhibition fold change (1-Treated/Control) (BXPC3; BxPC3): 0.01
IC50 (BXPC3; Homo sapiens, BXPC-3, BXPC3, 120 hours, Cell Titer Glo, read-out: LGK974 IC50s in cell line proliferation assay): > 2000 nM
Inhibition fold change (1-Treated/Control) (Capan-2): 0.40
IC50 (Capan-2; [1]): 1.8 nM
Inhibition fold change (1-Treated/Control) (HPAFII): 0.50
IC50 (HPAFII; Homo sapiens, HPAF-II, 120 hours, Cell Titer Glo, read-out: LGK974 IC50s in cell line proliferation assay): 33.6 nM
Inhibition fold change (1-Treated/Control) (HUP-T3): 0.07
IC50 (HUP-T3; [1]): > 2000 nM
Inhibition fold change (1-Treated/Control) (KP-1NL): 0.00
IC50 (KP-1NL; [1]): > 2000 nM
Inhibition fold change (1-Treated/Control) (KP-1N): 0.01
IC50 (KP-1N; [1]): > 2000 nM
Inhibition fold change (1-Treated/Control) (KP-2): 0.06
IC50 (KP-2; [1]): > 2000 nM
Inhibition fold change (1-Treated/Control) (KP-3): 0.02
IC50 (KP-3; [1]): > 2000 nM
Inhibition fold change (1-Treated/Control) (PA-TU-8902): 0.02
IC50 (PA-TU-8902; Homo sapiens, PaTu 8902, 120 hours, Cell Titer Glo, read-out: LGK974 IC50s in cell line proliferation assay): > 2000 nM
Inhibition fold change (1-Treated/Control) (PA-TU-8988S): 0.40
IC50 (PA-TU-8988S; Homo sapiens, PaTuÂ 8988s, 120 hours, Cell Titer Glo, read-out: LGK974 IC50s in cell line proliferation assay): 11.6 nM
Inhibition fold change (1-Treated/Control) (PA-TU-8988T): 0.00
IC50 (PA-TU-8988T; Homo sapiens, PaTu 8988t, 120 hours, Cell Titer Glo, read-out: LGK974 IC50s in cell line proliferation assay): > 2000 nM
Inhibition fold change (1-Treated/Control) (PK-1): 0.00
IC50 (PK-1; [1]): > 2000 nM
Inhibition fold change (1-Treated/Control) (PK-59): 0.06
IC50 (PK-59; [1]): > 2000 nM
IC50 (Panc 03.27; Homo sapiens, PANC-03-27, Panc 03.27, 120 hours, Cell Titer Glo, read-out: LGK974 IC50s in cell line proliferation assay): > 2000 nM
Inhibition fold change (1-Treated/Control) (Panc 03.27; Panc03.27): 0.06
IC50 (Panc 05.04; Homo sapiens, Panc 05.04, 120 hours, Cell Titer Glo, read-out: LGK974 IC50s in cell line proliferation assay): > 2000 nM
Inhibition fold change (1-Treated/Control) (Panc 05.04; Panc05.04): 0.09
IC50 (Panc 10.05; Homo sapiens, Panc1005, Panc 10.05, 120 hours, Cell Titer Glo, read-out: LGK974 IC50s in cell line proliferation assay): > 2000 nM
Inhibition fold change (1-Treated/Control) (Panc 10.05; Panc10.05): 0.02
Inhibition fold change (1-Treated/Control) (Panc1): 0.00
IC50 (Panc1; Homo sapiens, PANC-1, 120 hours, Cell Titer Glo, read-out: LGK974 IC50s in cell line proliferation assay): > 2000 nM
Inhibition fold change (1-Treated/Control) (SUIT-2): 0.00
IC50 (SUIT-2; [1]): > 2000 nM
Inhibition fold change (1-Treated/Control) (SW1990): 0.03
IC50 (SW1990; [1]): > 2000 nM
Inhibition fold change (1-Treated/Control) (TCC-PAN2): 0.02
IC50 (TCC-PAN2; 120 hours): > 2000 nM
IC50 (TCC-PAN2; Homo sapiens, 120 h): > 1700 nM
Inhibition fold change (1-Treated/Control) (YAPC): 0.20
IC50 (YAPC; [1]): > 2000 nM
